Literature values as cited in patent US8252902B2, “Antibody targeting compounds” (The Scripps Research Institute, priority 2001, dated 2012).

Key:
VEGFR-2 = VEGFR-2 (Homo sapiens, UniProt P35968)
[1] = test system: VEGF-mediated angiogenesis
[2] = test system: HIV primary isolates and laboratory-adapted strains

Sequence of VEGFR-2 (P35968 20-1356, species assumed): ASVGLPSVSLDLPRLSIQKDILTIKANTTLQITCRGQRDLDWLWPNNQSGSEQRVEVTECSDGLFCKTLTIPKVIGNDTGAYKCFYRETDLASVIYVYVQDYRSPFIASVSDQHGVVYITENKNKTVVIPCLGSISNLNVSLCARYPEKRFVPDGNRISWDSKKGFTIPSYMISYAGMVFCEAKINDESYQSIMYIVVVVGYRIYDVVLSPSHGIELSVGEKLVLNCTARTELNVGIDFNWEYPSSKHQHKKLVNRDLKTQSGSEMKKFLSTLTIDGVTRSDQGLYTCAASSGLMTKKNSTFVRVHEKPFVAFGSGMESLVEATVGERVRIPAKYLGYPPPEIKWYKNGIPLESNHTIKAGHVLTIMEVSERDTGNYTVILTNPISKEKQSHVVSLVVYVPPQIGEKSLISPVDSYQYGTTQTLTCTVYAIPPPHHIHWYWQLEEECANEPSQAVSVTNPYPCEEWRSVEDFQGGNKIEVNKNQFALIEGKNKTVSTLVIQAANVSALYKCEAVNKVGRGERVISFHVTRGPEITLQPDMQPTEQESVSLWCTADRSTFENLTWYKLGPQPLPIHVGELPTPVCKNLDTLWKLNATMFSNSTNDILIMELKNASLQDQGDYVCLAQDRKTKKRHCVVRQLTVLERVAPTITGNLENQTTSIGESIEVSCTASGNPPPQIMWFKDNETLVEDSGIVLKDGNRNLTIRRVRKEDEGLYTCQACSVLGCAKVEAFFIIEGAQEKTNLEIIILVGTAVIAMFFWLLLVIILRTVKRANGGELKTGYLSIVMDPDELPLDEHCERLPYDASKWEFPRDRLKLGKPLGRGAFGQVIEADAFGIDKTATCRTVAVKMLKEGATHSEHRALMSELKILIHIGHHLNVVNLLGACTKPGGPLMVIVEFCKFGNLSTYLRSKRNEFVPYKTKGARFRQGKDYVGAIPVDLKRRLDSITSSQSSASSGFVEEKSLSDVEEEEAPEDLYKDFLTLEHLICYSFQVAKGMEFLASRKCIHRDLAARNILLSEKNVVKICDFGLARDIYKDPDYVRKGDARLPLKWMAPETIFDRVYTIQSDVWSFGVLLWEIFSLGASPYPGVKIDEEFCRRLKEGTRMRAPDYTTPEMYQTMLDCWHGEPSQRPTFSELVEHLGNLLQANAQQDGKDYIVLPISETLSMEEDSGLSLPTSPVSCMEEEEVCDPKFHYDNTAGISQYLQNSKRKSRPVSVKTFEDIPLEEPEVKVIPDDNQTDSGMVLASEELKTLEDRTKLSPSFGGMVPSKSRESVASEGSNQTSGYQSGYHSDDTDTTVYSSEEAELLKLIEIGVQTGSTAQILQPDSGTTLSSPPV

## ATWLPPR (homo sapiens) [ATWLPPR (SEQ ID NO: 2)]
VEGFR-2
  interference with VEGF binding to VEGFR-2: effectively interfered
[1]
  inhibition of VEGF-mediated angiogenesis: inhibited

## C=C(C)[C@@H]1CC[C@]2(C(=O)NCCCCCCCC(=O)N[C@@H](CC(C)C)[C@H](O)CC(=O)O)CC[C@]3(C)[C@H](CC[C@@H]4[C@@]5(C)CC[C@H](O)C(C)(C)[C@@H]5CC[C@]43C)[C@@H]12 [IC9564]
[2]
  anti-HIV activity: can inhibit both HIV primary isolates and laboratory-adapted strains
